Laboratory results: PMC12683216, “Using High‐Throughput Screening to Identify Crosslinking Peptides That Control Cell‐Mediated Matrix Degradation” (Advanced Healthcare Materials, 2025)
Where a SMILES comes first, the peptide text is derived from it. [ ]: non-standard residue; d: D form. βAla = NCCC(=O)O

Assay: Peptide stability in fresh cell culture media (Blank)
Assay type: in vitro ADME
Conditions: no cell contact, 24 h, LC-MS
Protocol: To verify that MMP‐14 can degrade the KLVAD‐LM and PanMMP peptides, recombinant MMP‐14 was added to the different peptides, both in PBS and in the Cell and Media culture conditions (Figure 7 ). Peptides were incubated under three conditions: in fresh cell culture media (“Blank”), in media with cells present (“Cells”), and in cell‐conditioned media (“Media”). This was done for both hMSCs and hUVECs, and was also done with and without the addition of exogenous MMP.
The extent of peptide degradation was quantified for samples both with and without the addition of exogenous MMP‐14. […] Error bars indicate ± standard deviation, N = 3 with technical triplicates.
hUVECs (75000 per well) or hMSCs (36000 per well) were seeded into a 48 well plate, and 500 µL media was added to the wells. […] The peptide libraries were dissolved at a stock solution of 10 mM total peptide content. […]
For all degradation studies using soluble peptides, a non‐proteolytically degradable NH2‐βFβAβAβAβAβAβA‐amide (βFβA6) peptide, where βF is β‐phenylalanine and βA is β‐alanine, was added at a 50 µM concentration and used as an internal standard. Peptide degradation ratios were measured by LC‐MS and analyzed by Xcalibur. The relative concentrations of the peptide were calculated by the ratio of the peak area of the peptide and the peak area of βFβA6.

CC[C@H](C)[C@H](NC(=O)CNC(=O)[C@H](CCC(N)=O)NC(=O)[C@@H]1CCCN1C(=O)CNC(=O)CCNC(C)=O)C(=O)N[C@@H](Cc1c[nH]c2ccccc12)C(=O)NCC(=O)N[C@@H](CCC(N)=O)C(=O)NCCC(N)=O [PanMMP, reference compound] (Ac-[βAla]GPQGIWGQ[βAla]-NH2)
degradation in the Blank condition without added MMP‐14 (hydrolytic stability): negligible degradation
